How the values were obtained:
Hela cell line = assay: Cytotoxicity MTS assay, Hela cell line; format: cell-based; details: for OD490 Mean / OD490 Well 1 / OD490 Well 2 / OD490 Well 3: Hela cell line; for IC50: MTS assay, 24 h exposure;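 for OD490 Mean: blank control DMSO at 0.025% final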;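 for OD490 Well 1: blank control DMSO at 0.025% final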;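 for OD490 Well 2: blank control DMSO at 0.025% final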;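 for OD490 Well 3: blank control DMSO at 0.025% final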
Summary of the method: (§1)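 Growth inhibition is measured by MTS conversion, read as absorbance at 490 nm after 2 h at 37 °C. Compounds act on cells seeded at 1000/well for 24 h across 0.5–100 µM final. Data derive from three independent duplicate experiments.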

T24 cell line = assay: Cytotoxicity MTS assay, T24 cell line; format: cell-based; details: for OD490 Mean / OD490 Well 1 / OD490 Well 2 / OD490 Well 3: T24 cell line;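 for OD490 Mean: blank control wells received 0.025% DMSO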;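 for OD490 Well 1: blank control wells received 0.025% DMSO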;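 for OD490 Well 2: blank control wells received 0.025% DMSO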;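 for OD490 Well 3: blank control wells received 0.025% DMSO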
Summary of the method: as §1

Structure (SMILES): CCOC(=O)C1=C(C)NC(=S)NC1c1cccc(O)c1 (stereo not drawn) [Monastrol, monastrol, reference compound]
- OD490 Mean (Hela cell line; 0.5μM, first assay): 2.4571
- OD490 Well 1 (Hela cell line; 0.5μM, first assay): 2.3556
- OD490 Well 2 (Hela cell line; 0.5μM, first assay): 2.5698
- OD490 Well 3 (Hela cell line; 0.5μM, first assay): 2.4458
- OD490 Mean (Hela cell line; 0.5μM, second assay): 2.6032
- OD490 Well 1 (Hela cell line; 0.5μM, second assay): 2.5874
- OD490 Well 2 (Hela cell line; 0.5μM, second assay): 2.6523
- OD490 Well 3 (Hela cell line; 0.5μM, second assay): 2.5698
- OD490 Mean (Hela cell line; 0.5μM, third assay): 2.6247
- OD490 Well 1 (Hela cell line; 0.5μM, third assay): 2.6417
- OD490 Well 2 (Hela cell line; 0.5μM, third assay): 2.5470
- OD490 Well 3 (Hela cell line; 0.5μM, third assay): 2.6854
- OD490 Mean (Hela cell line; 1μM, first assay): 2.1630
- OD490 Well 1 (Hela cell line; 1μM, first assay): 2.3365
- OD490 Well 2 (Hela cell line; 1μM, first assay): 2.0131
- OD490 Well 3 (Hela cell line; 1μM, first assay): 2.1393
- OD490 Mean (Hela cell line; 1μM, second assay): 2.5460
- OD490 Well 1 (Hela cell line; 1μM, second assay): 2.5687
- OD490 Well 2 (Hela cell line; 1μM, second assay): 2.5478
- OD490 Well 3 (Hela cell line; 1μM, second assay): 2.5214
- OD490 Mean (Hela cell line; 1μM, third assay): 2.5064
- OD490 Well 1 (Hela cell line; 1μM, third assay): 2.5748
- OD490 Well 2 (Hela cell line; 1μM, third assay): 2.5214
- OD490 Well 3 (Hela cell line; 1μM, third assay): 2.4230
- OD490 Mean (Hela cell line; 10μM, first assay): 2.2162
- OD490 Well 1 (Hela cell line; 10μM, first assay): 2.1607
- OD490 Well 2 (Hela cell line; 10μM, first assay): 2.2561
- OD490 Well 3 (Hela cell line; 10μM, first assay): 2.2317
- OD490 Mean (Hela cell line; 10μM, second assay): 2.5812
- OD490 Well 1 (Hela cell line; 10μM, second assay): 2.6541
- OD490 Well 2 (Hela cell line; 10μM, second assay): 2.5541
- OD490 Well 3 (Hela cell line; 10μM, second assay): 2.5354
- OD490 Mean (Hela cell line; 10μM, third assay): 2.5198
- OD490 Well 1 (Hela cell line; 10μM, third assay): 2.6510
- OD490 Well 2 (Hela cell line; 10μM, third assay): 2.2561
- OD490 Well 3 (Hela cell line; 10μM, third assay): 2.6524
- OD490 Mean (Hela cell line; 25μM, first assay): 2.2546
- OD490 Well 1 (Hela cell line; 25μM, first assay): 2.1835
- OD490 Well 2 (Hela cell line; 25μM, first assay): 2.2875
- OD490 Well 3 (Hela cell line; 25μM, first assay): 2.2928
- OD490 Mean (Hela cell line; 25μM, second assay): 2.5253
- OD490 Well 1 (Hela cell line; 25μM, second assay): 2.6854
- OD490 Well 2 (Hela cell line; 25μM, second assay): 2.3365
- OD490 Well 3 (Hela cell line; 25μM, second assay): 2.5541
- OD490 Mean (Hela cell line; 25μM, third assay): 2.5000
- OD490 Well 1 (Hela cell line; 25μM, third assay): 2.5874
- OD490 Well 2 (Hela cell line; 25μM, third assay): 2.2584
- OD490 Well 3 (Hela cell line; 25μM, third assay): 2.6541
- OD490 Mean (Hela cell line; 50μM, first assay): 2.5586
- OD490 Well 1 (Hela cell line; 50μM, first assay): 2.7188
- OD490 Well 2 (Hela cell line; 50μM, first assay): 2.4306
- OD490 Well 3 (Hela cell line; 50μM, first assay): 2.5263
- OD490 Mean (Hela cell line; 50μM, second assay): 2.4511
- OD490 Well 1 (Hela cell line; 50μM, second assay): 2.3541
- OD490 Well 2 (Hela cell line; 50μM, second assay): 2.5478
- OD490 Well 3 (Hela cell line; 50μM, second assay): 2.4514
- OD490 Mean (Hela cell line; 50μM, third assay): 2.6173
- OD490 Well 1 (Hela cell line; 50μM, third assay): 2.5412
- OD490 Well 2 (Hela cell line; 50μM, third assay): 2.6521
- OD490 Well 3 (Hela cell line; 50μM, third assay): 2.6587
- OD490 Mean (Hela cell line; 100μM, first assay): 2.2182
- OD490 Well 1 (Hela cell line; 100μM, first assay): 2.3464
- OD490 Well 2 (Hela cell line; 100μM, first assay): 2.1470
- OD490 Well 3 (Hela cell line; 100μM, first assay): 2.1612
- OD490 Mean (Hela cell line; 100μM, second assay): 2.5306
- OD490 Well 1 (Hela cell line; 100μM, second assay): 2.4236
- OD490 Well 2 (Hela cell line; 100μM, second assay): 2.6540
- OD490 Well 3 (Hela cell line; 100μM, second assay): 2.5142
- OD490 Mean (Hela cell line; 100μM, third assay): 2.4597
- OD490 Well 1 (Hela cell line; 100μM, third assay): 2.3654
- OD490 Well 2 (Hela cell line; 100μM, third assay): 2.5784
- OD490 Well 3 (Hela cell line; 100μM, third assay): 2.4352
- IC50 (Hela cell line; Homo sapiens, HeLa, 24 h): > 150 µM
- IC50 (Hela cell line): > 150 µM
- IC50 (T24 cell line; Homo sapiens, T-24, MTS assay, 24 h exposure): 129 µM
- OD490 Mean (T24 cell line; 0.5μM, first assay): 1.5184
- OD490 Well 1 (T24 cell line; 0.5μM, first assay): 1.3936
- OD490 Well 2 (T24 cell line; 0.5μM, first assay): 1.6757
- OD490 Well 3 (T24 cell line; 0.5μM, first assay): 1.4858
- OD490 Mean (T24 cell line; 0.5μM, second assay): 1.7880
- OD490 Well 1 (T24 cell line; 0.5μM, second assay): 1.9582
- OD490 Well 2 (T24 cell line; 0.5μM, second assay): 1.7425
- OD490 Well 3 (T24 cell line; 0.5μM, second assay): 1.6632
- OD490 Mean (T24 cell line; 0.5μM, third assay): 1.7701
- OD490 Well 1 (T24 cell line; 0.5μM, third assay): 1.9582
- OD490 Well 2 (T24 cell line; 0.5μM, third assay): 1.6852
- OD490 Well 3 (T24 cell line; 0.5μM, third assay): 1.6669
- OD490 Mean (T24 cell line; 1μM, first assay): 1.8525
- OD490 Well 1 (T24 cell line; 1μM, first assay): 1.8866
- OD490 Well 2 (T24 cell line; 1μM, first assay): 1.8580
- OD490 Well 3 (T24 cell line; 1μM, first assay): 1.8130
- OD490 Mean (T24 cell line; 1μM, second assay): 1.7956
- OD490 Well 1 (T24 cell line; 1μM, second assay): 1.8475
- OD490 Well 2 (T24 cell line; 1μM, second assay): 1.7952
- OD490 Well 3 (T24 cell line; 1μM, second assay): 1.7442
- OD490 Mean (T24 cell line; 1μM, third assay): 1.6875
- OD490 Well 1 (T24 cell line; 1μM, third assay): 1.4752
- OD490 Well 2 (T24 cell line; 1μM, third assay): 1.8852
- OD490 Well 3 (T24 cell line; 1μM, third assay): 1.7020
- OD490 Mean (T24 cell line; 10μM, first assay): 1.8245
- OD490 Well 1 (T24 cell line; 10μM, first assay): 1.8141
- OD490 Well 2 (T24 cell line; 10μM, first assay): 1.7506
- OD490 Well 3 (T24 cell line; 10μM, first assay): 1.9088
- OD490 Mean (T24 cell line; 10μM, second assay): 1.6766
- OD490 Well 1 (T24 cell line; 10μM, second assay): 1.5874
- OD490 Well 2 (T24 cell line; 10μM, second assay): 1.5998
- OD490 Well 3 (T24 cell line; 10μM, second assay): 1.8425
- OD490 Mean (T24 cell line; 10μM, third assay): 1.6451
- OD490 Well 1 (T24 cell line; 10μM, third assay): 1.7425
- OD490 Well 2 (T24 cell line; 10μM, third assay): 1.6625
- OD490 Well 3 (T24 cell line; 10μM, third assay): 1.5302
- OD490 Mean (T24 cell line; 25μM, first assay): 1.7708
- OD490 Well 1 (T24 cell line; 25μM, first assay): 1.7726
- OD490 Well 2 (T24 cell line; 25μM, first assay): 1.7434
- OD490 Well 3 (T24 cell line; 25μM, first assay): 1.7965
- OD490 Mean (T24 cell line; 25μM, second assay): 1.7004
- OD490 Well 1 (T24 cell line; 25μM, second assay): 1.7416
- OD490 Well 2 (T24 cell line; 25μM, second assay): 1.7723
- OD490 Well 3 (T24 cell line; 25μM, second assay): 1.5874
- OD490 Mean (T24 cell line; 25μM, third assay): 1.7296
- OD490 Well 1 (T24 cell line; 25μM, third assay): 1.7711
- OD490 Well 2 (T24 cell line; 25μM, third assay): 1.6854
- OD490 Well 3 (T24 cell line; 25μM, third assay): 1.7324
- OD490 Mean (T24 cell line; 50μM, first assay): 1.5876
- OD490 Well 1 (T24 cell line; 50μM, first assay): 1.5372
- OD490 Well 2 (T24 cell line; 50μM, first assay): 1.6410
- OD490 Well 3 (T24 cell line; 50μM, first assay): 1.5845
- OD490 Mean (T24 cell line; 50μM, second assay): 1.6611
- OD490 Well 1 (T24 cell line; 50μM, second assay): 1.6325
- OD490 Well 2 (T24 cell line; 50μM, second assay): 1.6666
- OD490 Well 3 (T24 cell line; 50μM, second assay): 1.6841
- OD490 Mean (T24 cell line; 50μM, third assay): 1.4371
- OD490 Well 1 (T24 cell line; 50μM, third assay): 1.3024
- OD490 Well 2 (T24 cell line; 50μM, third assay): 1.5270
- OD490 Well 3 (T24 cell line; 50μM, third assay): 1.4820
- OD490 Mean (T24 cell line; 100μM, first assay): 1.3979
- OD490 Well 1 (T24 cell line; 100μM, first assay): 1.3668
- OD490 Well 2 (T24 cell line; 100μM, first assay): 1.4841
- OD490 Well 3 (T24 cell line; 100μM, first assay): 1.3428
- OD490 Mean (T24 cell line; 100μM, second assay): 1.3537
- OD490 Well 1 (T24 cell line; 100μM, second assay): 1.3658
- OD490 Well 2 (T24 cell line; 100μM, second assay): 1.3365
- OD490 Well 3 (T24 cell line; 100μM, second assay): 1.3587
- OD490 Mean (T24 cell line; 100μM, third assay): 1.3785
- OD490 Well 1 (T24 cell line; 100μM, third assay): 1.4550
- OD490 Well 2 (T24 cell line; 100μM, third assay): 1.3885
- OD490 Well 3 (T24 cell line; 100μM, third assay): 1.2920

— publication PMC8037182, “Solvothermal Synthesis of Multiple Dihydropyrimidinones at a Time as Inhibitors of Eg5” (Molecules, 2021)
